Assay results published in US20120129872A1, “FUSED HETEROARYL INHIBITORS OF PRO-MATRIX METALLOPROTEINASE ACTIVATION” (priority 2010, published 2012).
pIC50, pKd: −log10 of the molar value. Counter-ions that a name gives are not always drawn.

How the values were obtained:
[1] = molecular target: T1, proMMP9(20-445;ΔFnII) (SEQ ID NO:6) (Homo sapiens, UniProt P14780, DEL216-390); test: ThermoFluor binding assay with proMMP9(20-445;ΔFnII)
T1 construct: start methionine (N); made in house; host or cells: E. coli BL21(DE3) RIL
T1 sequence (P14780 with tags, fused parts or gaps DEL216-390): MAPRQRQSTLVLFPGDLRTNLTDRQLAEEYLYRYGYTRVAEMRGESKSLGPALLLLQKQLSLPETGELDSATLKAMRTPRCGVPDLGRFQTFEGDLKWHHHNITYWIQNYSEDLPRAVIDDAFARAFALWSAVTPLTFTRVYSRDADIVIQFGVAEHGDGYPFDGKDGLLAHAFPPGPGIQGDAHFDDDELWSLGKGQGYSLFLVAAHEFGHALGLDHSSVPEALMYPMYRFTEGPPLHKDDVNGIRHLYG
Description: (§1) The ThermoFluor® (TF) assay is a 384-well plate-based binding assay that measures thermal stability of proteins (Biomol Screen 2001, 6, 429-40; Biochemistry 2005, 44, 5258-66). The experiments were carried out using instruments available from Johnson & Johnson Pharmaceutical Research & Development, LLC. TF dye used in all experiments was […] (1,8-ANS) (Invitrogen: A-47).
(§2) Compounds were arranged in a pre-dispensed plate (Greiner Bio-one: 781280), wherein compounds were serially diluted in 100% DMSO across 11 columns within a series. Columns 12 and 24 were used as DMSO reference and contained no compound. For multiple compound concentration-response experiments, the compound aliquots ([…]) were robotically predispensed directly into black 384-well polypropylene PCR microplates (Abgene: TF-0384/k) using a Cartesian Hummingbird liquid handler (DigiLab, Holliston, Mass.). Following compound dispense, protein and dye solutions were added to achieve the final assay volume of 3 μL. The assay solutions were overlayed with 1 μL of silicone oil (Fluka, type DC 200: 85411) to prevent evaporation.
(§3) Assay plates were robotically loaded onto a thermostatically controlled PCR-type thermal block and then heated from 40 to 90° C. at a ramp-rate of 1° C./min for all experiments. Fluorescence was measured by continuous illumination with UV light (Hamamatsu LC6) supplied via fiber optics and filtered through a band-pass filter (380-400 nm; >60D cutoff). Fluorescence emission of the entire 384-well plate was detected by measuring light intensity using a CCD camera (Sensys, Roper Scientific) filtered to detect 500±25 nm, resulting in simultaneous and independent readings of all 384 wells. A single image with 20-sec exposure time was collected at each temperature, and the sum of the pixel intensity in a given area of the assay plate was recorded vs temperature and fit to standard equations to yield the Tm (J Biomol Screen 2001, 6, 429-40).
(§4) Thermodynamic parameters necessary for fitting compound binding for each proMMP were estimated by differential scanning calorimetry (DSC) and from ThermoFluor® data. The heat capacity of unfolding for each protein was estimated from the molecular weight and from ThermoFluor® dosing data.
ThermoFluor® with proMMP9(20-445;ΔFnII (SEQ ID NO:6)
The protein sample preparations included a desalting buffer exchange step via a PD-10 gravity column (GE Healthcare). The desalting buffer exchange was performed prior to diluting the protein to the final assay concentration of 2.8 μM proMMP9(20-445;ΔFnII) (SEQ ID NO:6). The concentration of proMMP9(20-445;ΔFnII) (SEQ ID NO:6) was determined spectrophotometrically based on a calculated extinction coefficient of ε280=39880 M^−1 cm^−1, a calculated molecular weight of 28.2 kDa, and calculated pI of 5.5. ThermoFluor® reference conditions were define as follows: 80 μg/mL (2.8 μM) proMMP9(20-445;ΔFnII) (SEQ ID NO:6), 50 μM 1,8-ANS, pH 7.0 Buffer (50 mM HEPES pH 7.0, 100 mM NaCl, 0.001% Tween-20, 2.5 mM MgCl2, 300 μM CaCl2). The thermodynamic parameters for proMMP9(20-445;ΔFnII) (SEQ ID NO:6) are as follows: Tm (° C.)=72 (+/−0.1), ΔUH(Tm) (cal mol^−1)=160000(+/−5000), ΔUS(Tm) (cal mol^−1 K^−1)=434, ΔUCp (cal mol^−1 K^−1)=2400.

[2] = molecular target: T2, proMMP9(67-444;ΔFnII) (SEQ ID NO:5) (Homo sapiens, UniProt P14780, DEL216-390); test: ThermoFluor binding assay with proMMP9(67-444;ΔFnII)
T2 construct: start methionine (N); made in house; host or cells: E. coli BL21(DE3) RIL
T2 sequence (P14780 with tags, fused parts or gaps DEL216-390): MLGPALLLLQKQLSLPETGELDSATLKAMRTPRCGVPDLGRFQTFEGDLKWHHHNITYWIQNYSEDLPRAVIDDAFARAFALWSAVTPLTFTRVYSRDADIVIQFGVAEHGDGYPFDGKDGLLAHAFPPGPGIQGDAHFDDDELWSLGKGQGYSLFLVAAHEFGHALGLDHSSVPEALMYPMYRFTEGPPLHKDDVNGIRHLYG
Description: as §1, §2, §3, §4
ThermoFluor® with proMMP9(67-444;ΔFnII (SEQ ID NO:5)
The protein sample preparations had to include a desalting buffer exchange step via a PD-10 gravity column (GE Healthcare). The desalting buffer exchange was performed prior to diluting the protein to the final assay concentration of 3.5 μM proMMP9(67-444;ΔFnII) (SEQ ID NO:5). The concentration of proMMP9(67-444;ΔFnII) (SEQ ID NO:5) was determined spectrophotometrically based on a calculated extinction coefficient of ε280=33900 M^−1 cm^−1, a calculated molecular weight of 22.6 kDa, and calculated pI of 5.20. ThermoFluor® reference conditions were defined as follows: 80 μg/mL (3.5 μM) proMMP9(67-444;ΔFnII) (SEQ ID NO:5), 50 μM 1,8-ANS, pH 7.0 Buffer (50 mM HEPES pH 7.0, 100 mM NaCl, 0.001% Tween-20, 2.5 mM MgCl2, 300 μM CaCl2). The thermodynamic parameters for proMMP9(67-444;ΔFnII) (SEQ ID NO:5) are as follows: Tm (° C.)=63 (+/−0.1), ΔUH(Tm) (cal mol^−1)=105000(+/−5000), ΔUS(Tm) (cal mol^−1 K^−1)=450, ΔuCp (cal mol^−1 K^−1)=2000.

[3] = molecular target: T3, proMMP13(1-268) (SEQ ID NO:7) (Homo sapiens, UniProt P45452); test: ThermoFluor binding assay with proMMP13(1-268)
T3 construct: 6×-histidine tag (C); made in house; host or cells: HEK293 (transient, secreted)
Description: as §1, §2, §3, §4
ThermoFluor® with proMMP13(1-268) (SEQ ID NO: 7)
The proMMP13(1-268) (SEQ ID NO:7) protein sample preparations included a desalting buffer exchange step via a PD-10 gravity column (GE Healthcare). The desalting buffer exchange was performed prior to diluting the protein to the final assay concentration of 3.5 μM. The concentration of proMMP13(1-268) (SEQ ID NO:7) was estimated spectrophotometrically based on a calculated extinction coefficient of ε280=37000 M^−1 cm^−1, a calculated molecular weight of 30.8 kDa, and calculated pI of 5.33. ThermoFluor® reference conditions were defined as follows: 100 μg/mL proMMP13(1-268) (SEQ ID NO:7), 25 μM 1,8-ANS, pH 7.0 Buffer (50 mM HEPES pH 7.0, 100 mM NaCl, 0.001% Tween-20, 2.5 mM MgCl2, 300 μM CaCl2). The thermodynamic parameters for proMMP13(1-268) (SEQ ID NO:7) are as follows: Tm (° C.)=67 (+/−0.1), ΔUH(Tm) (cal mol^−1)=107000(+/−5000), ΔUS(Tm) (cal mol^−1 K^−1)=318, ΔUCp (cal mol^−1 K^−1)=2600.

[4] = molecular target: T4, full-length proMMP9(1-707) (SEQ ID NO:1), activation by catalytic MMP3 (Homo sapiens, UniProt P14780, R574P); test: proMMP9/MMP3 P126 Activation Assay; format: biochemical
T4 construct: made in house; host or cells: HEK293 (transient, secreted)
T4 sequence (P14780 20-707 R574P): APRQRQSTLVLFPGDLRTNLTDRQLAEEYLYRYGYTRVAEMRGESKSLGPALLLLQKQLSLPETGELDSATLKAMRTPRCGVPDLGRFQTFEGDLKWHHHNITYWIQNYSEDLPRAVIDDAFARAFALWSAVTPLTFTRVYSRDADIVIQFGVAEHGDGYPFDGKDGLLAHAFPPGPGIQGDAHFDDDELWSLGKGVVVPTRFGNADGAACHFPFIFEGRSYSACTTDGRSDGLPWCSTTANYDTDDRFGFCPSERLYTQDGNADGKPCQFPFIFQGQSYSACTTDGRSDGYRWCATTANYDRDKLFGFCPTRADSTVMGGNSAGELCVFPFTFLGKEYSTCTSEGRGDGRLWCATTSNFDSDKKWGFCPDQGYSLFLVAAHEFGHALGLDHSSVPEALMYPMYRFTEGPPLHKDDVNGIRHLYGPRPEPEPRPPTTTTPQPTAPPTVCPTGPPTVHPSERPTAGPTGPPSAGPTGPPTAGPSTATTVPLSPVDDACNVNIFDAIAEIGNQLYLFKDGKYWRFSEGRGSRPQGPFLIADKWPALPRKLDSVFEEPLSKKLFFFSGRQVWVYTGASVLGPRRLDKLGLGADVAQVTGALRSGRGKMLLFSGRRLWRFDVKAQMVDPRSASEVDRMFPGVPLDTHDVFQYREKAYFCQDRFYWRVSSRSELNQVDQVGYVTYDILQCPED
Description: proMMP9/MMP3 P126 Activation Assay
The reaction volume was 50 μL. […] Reactivity of residual MMP3 towards P-126 substrate was minimal under these conditions.

[5] = molecular target: T5, proMMP13(1-268) (SEQ ID NO:7), activation by plasmin (Homo sapiens, UniProt P45452); test: ProMMP13/Plasmin P126 Activation Assay; format: biochemical
T5 construct: 6×-histidine tag (C); made in house; host or cells: HEK293 (transient, secreted)
Description: ProMMP13/Plasmin P126 Activation Assay
On the day of assay, proMMP13(1-268) (SEQ ID NO:7) purified from HEK293 cells and plasmin were diluted to 160 nM and 320 nM, respectively, in assay buffer. The reaction volume was 50 μL. […] The plate was sealed and incubated for 40 min at 37° C. […] Plasmin was not reactive towards P-126 substrate under these conditions.

SMILES	pKd [1]	pKd [2]	pKd [3]	pIC50 [4]	pIC50 [5]
CCOc1ccc(S(N)(=O)=O)cc1Nc1nc(-n2c(C)nc3ccccc32)cs1 [Example 5, 4-Ethoxy-3-[4-(2-methyl-benzoimidazol-1-yl)-thiazol-2-ylamino]-benzenesulfonamide]	5.01	4.80	5.32	4.86	
CC(C)Oc1ccc(C(N)=O)cc1Nc1nc(-c2nc3ccccc3n2C)cs1 [Example 4, 4-Isopropoxy-3-[4-(1-methyl-1H-benzoimidazol-2-yl)-thiazol-2-ylamino]-benzamide•TFA]	4.80	5.01	4.89	~5.15	
CC(C)Oc1ccc(C(N)=O)cc1Nc1nc(-c2ccc3c(c2)ncn3C)cs1 [Example 8, 4-Isopropoxy-3-[4-(1-methyl-1H-benzoimidazol-5-yl)-thiazol-2-ylamino]-benzamide]	7.52	6.48		6.82	6.05
Cc1c(-c2csc(Nc3cc(C(N)=O)ccc3OC(C)C)n2)sc2ccccc12 [Example 3, 4-Isopropoxy-3-[4-(3-methyl-benzo[b]thiophen-2-yl)-thiazol-2-ylamino]-benzamide•HBr]	5.92	6.12	5.72	5.60	
Cc1nc2ccc(Cl)cn2c1-c1csc(Nc2cc(C(N)=O)ccc2OC(C)C)n1 [Example 6, 3-[4-(6-Chloro-2-methyl-imidazo[1,2-a]pyridin-3-yl)-thiazol-2-ylamino]-4-isopropoxy-benzamide]	6.31	4.77	5.96	6.19	
Cn1cnc2cc(-c3csc(Nc4cc(S(N)(=O)=O)ccc4OC(F)(F)F)n3)ccc21 [Example 12, 3-[4-(1-Methyl-1H-benzoimidazol-5-yl)-thiazol-2-ylamino]-4-trifluoromethoxy-benzenesulfonamide]	6.12	5.28		6.07	
COc1ccc(S(N)(=O)=O)cc1Nc1nc(-c2ccc3c(c2)ncn3C)cs1 [Example 11, 4-Methoxy-3-[4-(1-methyl-1H-benzoimidazol-5-yl)-thiazol-2-ylamino]-benzenesulfonamide]	5.32	4.96		6.07	
Cc1nc2cc(-c3csc(Nc4cc(S(N)(=O)=O)ccc4OC(C)C)n3)ccc2[nH]1 [Example 18, 4-Isopropoxy-3-[4-(2-methyl-1H-benzoimidazol-5-yl)-thiazol-2-ylamino]-benzenesulfonamide•TFA]	6.85	6.36		6.44	
CCn1cnc2cc(-c3csc(Nc4cc(S(N)(=O)=O)ccc4OC(C)C)n3)ccc21 [Example 25, 3-[4-(1-Ethyl-1H-benzoimidazol-5-yl)-thiazol-2-ylamino]-4-isopropoxy-benzenesulfonamide•TFA]	6.11	5.80		6.62	
Cc1ccn2c(-c3csc(Nc4cc(C(N)=O)ccc4OC(C)C)n3)c(C)nc2c1 [Example 7, 3-[4-(2,7-Dimethyl-imidazo[1,2-a]pyridin-3-yl)-thiazol-2-ylamino]-4-isopropoxy-benzamide]	5.82	5.02	5.92	5.74	
CC(C)Oc1ccc(S(N)(=O)=O)cc1Nc1nc(-c2ccc3c(cnn3C)c2)cs1 [Example 15, 4-Isopropoxy-3-[4-(1-methyl-1H-indazol-5-yl)-thiazol-2-ylamino]-benzenesulfonamide•TFA]	6.96	6.55		6.26	
CCn1cnc2ccc(-c3csc(Nc4cc(S(N)(=O)=O)ccc4OC(C)C)n3)cc21 [Example 27, 3-[4-(3-Ethyl-3H-benzoimidazol-5-yl)-thiazol-2-ylamino]-4-isopropoxy-benzenesulfonamide•TFA]	6.92	6.33		6.60	
